Experimental data: the supplement of paper PMC11208160

Assay: recombinant UMI read abundance after kanamycin selection (control-corrected) (log10(CPM+1)); higher = more efficient recombination; extreme values may be limits of the assay; sequences stand for … in AGTGCAGAGAAAATCGGCCAGTTTTCTCTGCCTGCAGTCCGCATGCCGTGGGACCCCTTGGGTTCTAACCTGTTGCCTAGATTTATGCAGCGGACTGCCTTTCTCCCAAAGTGATAAACCGG…AGGTTGGTTTCACT; site = the 11-nt donor
Summary of the method: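 For the IS621 bridge recombinase, a pooled Escherichia coli screen tested donor and donor-binding-loop pairs. Cells received the pair library together with a target plasmid encoding a fixed target and T7-inducible recombinase, then went onto IPTG (0.07 mM) plus kanamycin or unselected plates in duplicate. After PCR across the donor–target junction and sequencing, recombinant UMI counts were normalized to CPM, averaged, and scaled by control-derived factors. Each value is given as log10(CPM+1).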
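Also: IS621 bridge recombinase in Escherichia coli cells against a fixed T5 target plasmid.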

| Sequence | recombinant UMI read abundance (log10) |
| --- | --- |
| GCGGTTCCATGGACCGGTTTTCCCGGTAATCCGTATTTGTC (site GCGGTTCCTGA) | 0 |
| ACTAAAACATGGACCGGTTTTCCCGGTAATCCGTATTTGAG (site ACTACAACTCT) | 0.0124 |
| CGAGGACCATGGACCGGTTTTCCCGGTAATCCGTATTTGGG (site CGAGGACCTGC) | 0 |
| CTCCCTACATGGACCGGTTTTCCCGGTAATCCGTATTTGAG (site CTCCATACTCT) | 0.00249 |
| ACACATCCATGGACCGGTTTTCCCGGTAATCCGTATTTGAA (site ACACATCCTCT) | 0 |
| CTGCTATCATGGACCGGTTTTCCCGGTAATCCGTATTTGAC (site CTAGTATCTGT) | 0 |
| CCGTTCTCATGGACCGGTTTTCCCGGTAATCCGTATTTGGG (site CCTTTCTCTCC) | 0 |
| AGGAAGACATGGACCGGTTTTCCCGGTAATCCGTATTTGCA (site AGAAAGTCTTG) | 0.0125 |
| AGGCAAACATGGACCGGTTTTCCCGGTAATCCGTATTTGTA (site AGGCAAACTTA) | 1.9 |
| GCTTACCCATGGACCGGTTTTCCCGGTAATCCGTATTTGAT (site GCTTTCCCTAT) | 0 |
| CCCGGTCCATGGACCGGTTTTCCCGGTAATCCGTATTTGCA (site CCCGCTCCTTG) | 0 |
| GCCATACCATGGACCGGTTTTCCCGGTAATCCGTATTTGTG (site GCCATACCTCA) | 0.00697 |
| CCACATCCATGGACCGGTTTTCCCGGTAATCCGTATTTGAC (site ACACATCCTGT) | 0 |
| CTGCATCCATGGACCGGTTTTCCCGGTAATCCGTATTTGTT (site CTGCATCCTAA) | 0.855 |
| TAGCCTTCATGGACCGGTTTTCCCGGTAATCCGTATTTGTT (site TAGCCTTCTAT) | 0.00427 |
| CGATCATCATGGACCGGTTTTCCCGGTAATCCGTATTTGGG (site CGATCATCTAG) | 0 |
| CTCTACACATGGACCGGTTTTCCCGGTAATCCGTATTTGCT (site ATCTACACTAG) | 0.294 |
| TTAGTTGCATGGACCGGTTTTCCCGGTAATCCGTATTTGTG (site TTAGCTGCTCA) | 0.0133 |
| CACGGCCCATGGACCGGTTTTCCCGGTAATCCGTATTTGTA (site CACGGCCCTTA) | 0.29 |
| AATTGTGCATGGACCGGTTTTCCCGGTAATCCGTATTTGGA (site AATTTTGCTTC) | 0.0805 |
| TAAGACTCATGGACCGGTTTTCCCGGTAATCCGTATTTGTC (site TAAGACTCTGA) | 2.64 |
| CGGACATCATGGACCGGTTTTCCCGGTAATCCGTATTTGCT (site CGAACATCTAG) | 1.51 |
| CATGTAACATGGACCGGTTTTCCCGGTAATCCGTATTTGGG (site CATGTAACTCC) | 0.209 |
| AAAAGTCCATGGACCGGTTTTCCCGGTAATCCGTATTTGTA (site AAAAGTCCTTA) | 0.66 |
| TACGGCCCATGGACCGGTTTTCCCGGTAATCCGTATTTGTT (site CACGGCCCTAA) | 0.00844 |

| Sequence | recombinant UMI read abundance (log10) |
| --- | --- |
| ATCAACTCATGGACCGGTTTTCCCGGTAATCCGTATTTGTG (site ATCAACTCTCA) | 2.13 |
| GAATTCGCATGGACCGGTTTTCCCGGTAATCCGTATTTGCT (site GAATTCGCTAG) | 2.87 |
| CCGTTAGCATGGACCGGTTTTCCCGGTAATCCGTATTTGTG (site CCGTGAGCTCA) | 0.0389 |
| GTTTATTCATGGACCGGTTTTCCCGGTAATCCGTATTTGGT (site GTTTATTCTAC) | 1.61 |
| TGTTCGGCATGGACCGGTTTTCCCGGTAATCCGTATTTGAC (site TGTTCGGCTGT) | 0.323 |
| GTTCGGGCATGGACCGGTTTTCCCGGTAATCCGTATTTGCA (site GTTCGGGCTTG) | 2.23 |
| ACATCTACATGGACCGGTTTTCCCGGTAATCCGTATTTGAG (site ACATCTACTCG) | 0.0217 |
| CTAGCAGCATGGACCGGTTTTCCCGGTAATCCGTATTTGCT (site CAAGCAGCTAG) | 0.38 |
| TCTGCGGCATGGACCGGTTTTCCCGGTAATCCGTATTTGCT (site TCTGCGGCTAG) | 0.246 |
| CGGTACTCATGGACCGGTTTTCCCGGTAATCCGTATTTGGC (site CGGTACTCTGC) | 3.19 |
| TGAGAGGCATGGACCGGTTTTCCCGGTAATCCGTATTTGTA (site TGAGAGGCTTA) | 2.3 |
| GGCAATGCATGGACCGGTTTTCCCGGTAATCCGTATTTGAA (site GGCAATCCTTT) | 0 |
| CTCTACACATGGACCGGTTTTCCCGGTAATCCGTATTTGCT (site CTCTCCACTAG) | 0 |
| CCGTGAGCATGGACCGGTTTTCCCGGTAATCCGTATTTGTG (site CCGTAAGCTCA) | 0.0763 |
| AGGAAGACATGGACCGGTTTTCCCGGTAATCCGTATTTGCA (site AGGAAAACTTG) | 0.57 |
| ATAAGGCCATGGACCGGTTTTCCCGGTAATCCGTATTTGAC (site ATAAAGCCTGT) | 0 |
| ACTAGTGCATGGACCGGTTTTCCCGGTAATCCGTATTTGGT (site ACTTGTGCTAC) | 0.26 |
| CCAGGATCATGGACCGGTTTTCCCGGTAATCCGTATTTGCA (site CCAGGATCTTG) | 0.424 |
| CGGGTACCATGGACCGGTTTTCCCGGTAATCCGTATTTGAT (site CGGGAACCTAT) | 0 |
| CTATTATCATGGACCGGTTTTCCCGGTAATCCGTATTTGAC (site CTAATATCTGT) | 0 |
| GCGAATACATGGACCGGTTTTCCCGGTAATCCGTATTTGCT (site GCGAAGACTAG) | 0 |
| GGCAATGCATGGACCGGTTTTCCCGGTAATCCGTATTTGAA (site GGCAATACTTT) | 0 |
| CAGCCAACATGGACCGGTTTTCCCGGTAATCCGTATTTGCA (site CAGCCAACTTG) | 2.34 |
| ACGCGCCCATGGACCGGTTTTCCCGGTAATCCGTATTTGGT (site ACGCGCCCTAC) | 0.771 |
| AGTTCAGCATGGACCGGTTTTCCCGGTAATCCGTATTTGGG (site AGGTCAGCTCC) | 0.0161 |

| Sequence | recombinant UMI read abundance (log10) |
| --- | --- |
| TATGTGTCATGGACCGGTTTTCCCGGTAATCCGTATTTGAC (site TATGTGTCTGT) | 0.884 |
| TCTTACCCATGGACCGGTTTTCCCGGTAATCCGTATTTGCA (site TCTTACCCTTG) | 0 |
| CAATTCCCATGGACCGGTTTTCCCGGTAATCCGTATTTGTT (site CAATTCCCTAA) | 1.71 |
| ATCTATTCATGGACCGGTTTTCCCGGTAATCCGTATTTGAC (site ATCTATTCTGT) | 1.51 |
| GTCCACCCATGGACCGGTTTTCCCGGTAATCCGTATTTGTT (site GACCACCCTAA) | 0.0143 |
| GCGAAAACATGGACCGGTTTTCCCGGTAATCCGTATTTGCT (site GCAAAAACTAG) | 0 |
| GTTCGACCATGGACCGGTTTTCCCGGTAATCCGTATTTGCA (site GTTCGAACTTG) | 0 |
| GCTTACCCATGGACCGGTTTTCCCGGTAATCCGTATTTGAT (site GCTTGCCCTAT) | 0.0186 |
| GGTCGAACATGGACCGGTTTTCCCGGTAATCCGTATTTGTA (site GGTCCAACTTA) | 0.00781 |
| CGGACATCATGGACCGGTTTTCCCGGTAATCCGTATTTGCC (site CGGACATCTGG) | 2.66 |
| ATAAGTCCATGGACCGGTTTTCCCGGTAATCCGTATTTGAC (site ATAAGACCTGT) | 0 |
| CTCCCTACATGGACCGGTTTTCCCGGTAATCCGTATTTGAG (site CCCCCTACTCT) | 0.0077 |
| CACTATGCATGGACCGGTTTTCCCGGTAATCCGTATTTGAT (site CACTATGCTAT) | 1.93 |
| CCGTTAGCATGGACCGGTTTTCCCGGTAATCCGTATTTGTG (site CCGATAGCTCA) | 0.0175 |
| GGCCACCCATGGACCGGTTTTCCCGGTAATCCGTATTTGTT (site GGCCACCCTAT) | 0.0103 |
| CACGGGCCATGGACCGGTTTTCCCGGTAATCCGTATTTGTT (site CACGGCCCTAA) | 0.234 |
| AGACGAACATGGACCGGTTTTCCCGGTAATCCGTATTTGTC (site ACACGAACTGA) | 0 |
| TCCCTACCATGGACCGGTTTTCCCGGTAATCCGTATTTGAT (site TCCCTACCTAT) | 0 |
| AGGCCGGCATGGACCGGTTTTCCCGGTAATCCGTATTTGGC (site AGGCCGGCTGC) | 1.07 |
| AGGTTCGCATGGACCGGTTTTCCCGGTAATCCGTATTTGTG (site AGGTTCGCTCA) | 0.666 |
| TCTTTGGCATGGACCGGTTTTCCCGGTAATCCGTATTTGTG (site TATTTGGCTCA) | 0.0246 |
| GCCATGCCATGGACCGGTTTTCCCGGTAATCCGTATTTGTA (site GCCAAGCCTTA) | 0.00915 |
| AGGCCGGCATGGACCGGTTTTCCCGGTAATCCGTATTTGGC (site CGGCCGGCTGC) | 0 |
| CCTACTGCATGGACCGGTTTTCCCGGTAATCCGTATTTGCC (site CCTACTGCTGG) | 0.191 |
| TAGCTAGCATGGACCGGTTTTCCCGGTAATCCGTATTTGAA (site TAGCTAGCTTT) | 0.858 |
